From patent US11298346B2, “Methods for treatment of fibrotic diseases” (Beta Cat Pharmaceuticals, Inc., priority 2017, dated 2022)
Several values for one entry are separate records, joined by “and”; a condition that tells them apart may be missing. Equal values may be shown once.

Legend:
[1] = test system: primary palmar fascia fibroblasts derived from the fibrotic palmar fascia (DD249 cells); experiment: Alamar Blue proliferation/viability assay, DD249 cells; type: cell-based, human; conditions: for proliferation/viability: DD249 cells, 48 and 72 hrs relative to 24 hrs
Method: (§1) Tegavivint (BC-2059) powder was reconstituted it in 100% dimethyl sulfoxide (DMSO) to a 10_mM stock solution. The stock was diluted to 100 nM in serum-free media (α minimal essential medium, αMEM), and further diluted to 100 pM in serum-free αMEM immediately before the analyses were performed. Serial dilutions from 100 pM down to 0.78 pM were assessed in various assays. 0.001% DMSO in αMEM was used as the vehicle control, and αMEM alone was used as an untreated control, in a subset of analyses.
(§2) Proliferation/viability analyses were performed in triplicate on primary palmar fascia fibroblasts derived from the fibrotic palmar fascia (DD cells) of 2 patients with Dupuytren's disease (DD249, DD77) and syngeneic primary palmar fascia fibroblasts derived from visibly non-fibrotic palmar fascia (PF cells) from these patients (PF249, PF77). Cells were cultured on type-1 collagen coated 96 well trays for these analyses to better replicate substrate interactions in vivo. Two independent assays were used for these analyses: Alamar Blue assays for analyses up to 72 hrs in cells derive from 1 patient, and Water Soluble Tetrazolium-(WST-1) assays for analyses up to 24 hrs in cells derived from the other patients. Significant effects of treatment on proliferation over time were detected by ANOVA repeated measures.

[2] = test system: cell lines derived from chromic myeloid leukemia (CML) patients and cell lines and primary cells derived from myeloproliferative neoplasm (MPN) patients; conditions: background statement; cited from earlier work
DD180 cells = experiment: Fibroblast populated collagen lattice (FPCL) contraction assay; type: cell-based, human; conditions: ≤25 pM
Method: as §1
Fibroblast populated collagen lattice assays were performed on primary palmar fascia fibroblasts derived from the fibrotic palmar fascia of one patient with Dupuytren's disease (DD180) using the protocol described in Raykha, C., Crawford, J., Gan, B. S., Fu, P., Bach, L. A., and O'Gorman, D. B. (2013) IGF-II and IGFBP-6 regulate cellular contractility and proliferation in Dupuytren's disease. Biochimica et biophysica acta. 1832, 1511-9.

[3] = test system: bleomycin-induced idiopathic pulmonary fibrosis (IPF); experiment: Nebulized tegavivint nanosuspension in mouse model of bleomycin-induced idiopathic pulmonary fibrosis; type: in vivo, C57BL/6 male mice
Method: The purpose of this experiment was to investigate tegavivint nanosuspension in a mouse model of bleomycin-induced idiopathic pulmonary fibrosis (IPF). Test articles 10 were as follows:
Tegavivint (BC2059) in a nano-milled suspension 25 mg/mL in 0.625% poloxamer 188 and 10% sorbitol. The compound was refrigerated at about 4° C.
Nebulizing equipment was Altera ultrasonic eRapid machine nebulizer (model #678G1002).
Animals were 8-12 week old C57BL/6 male mice (Jackson Lab, Bar Harbor, Me.).
Murine model of pulmonary fibrosis was induced by intratracheally (IT) injected bleomycin (APP Pharmaceuticals, Schaumburg, Ill.). One dose of 0.025 U bleomycin dissolved in 50 microliters of Saline 0.9%, or PBS as control was administered to each animal on day 0.
Tegavivint nanosuspension was applied to Group 3 in the form of aerosols, through the method of whole body exposure. The mice were placed inside a plastic box. This box was sealed and connected by one of its sides to the outlet of the nebulizer device, and on the other side to a system of closed water. The whole procedure was carried out inside the fume hood of the animal room. In each treatment session, 5 ml of 25 mg/ml Tegavivint (125 mg) was nebulized over 15 min to each group of 4-5 mice in the chamber. To increase exposure of the mice to the aerosol, Tegavivint that precipitated in the aerosol chamber was collected with a syringe and re-nebulized a second and a third time. Mice were nebulized twice a day between day 5 and day 21 after administration of bleomycin. Group 1 and 2 received nebulized vehicle 5 ml in the same manner.
The body weight of animals was recorded on Days 0, 5, 8, 12, 16, 19, and 21.
Measurements of lung mechanics were performed on Day 21 as previously described (Morales-Nebreda L, et al. AJRCMB 2015) on Day 21 using a FlexiVent mouse ventilator (Scireq, Montreal, PQ, Canada) according to the protocols established by Scireq. A standard ventilation history for each mouse was obtained with three total lung capacity maneuvers before the forced oscillation and quasistatic pressure-volume curve protocols that were used to calculate airway resistance, dynamic and quasistatic tissue compliance, and elastance.
On Day 21 all animals were sacrificed and lungs were harvested. Total lung collagen content was evaluated using the Hydroxyproline Assay as previously described (Morales-Nebreda L, et al. AJRCMB 2015). In brief, mouse lungs were harvested and suspended in 1 ml of 0.5 M acetic acid and then homogenized, first with a tissue homogenizer (60 s on ice) and then using 15 strokes in a Dounce homogenizer (on ice). The resulting homogenate was spun (12,000×g) for 10 minutes, and the supernatant was used for subsequent analyses. Collagen standards were prepared in 0.5 M acetic acid using rat tail collagen (Sigma-Aldrich, St. Louis, Mo.). Picrosirius red dye was prepared by mixing 0.2 g of Sirius red F3B (Sigma-Aldrich) with 200 ml of […]; 1 ml of the Picrosirius red dye was added to 100 μl of the collagen standard or the lung homogenates and then mixed continuously at room temperature on an orbital shaker for 30 minutes. The precipitated collagen was then pelleted and washed once with 0.5 M acetic acid (12,000×g for 15 min each). The resulting pellet was resuspended in 1 ml of 0.5 M NaOH and Sirius red staining was quantified spectrophotometrically (540 nm) using a colorimetric plate reader (Bio-Rad, Hercules, Calif.).

[4] = test system: syngeneic primary palmar fascia fibroblasts derived from visibly non-fibrotic palmar fascia (PF249 cells); experiment: Alamar Blue proliferation/viability assay, PF249 cells; type: cell-based, human; conditions: for proliferation/viability: PF249 cells, 48 and 72 hrs relative to 24 hrs
Method: as §1, §2

[5] = test system: bleomycin-induced pulmonary fibrosis; experiment: Bleomycin-induced pulmonary fibrosis mouse model, intranasal Tegavivint; type: in vivo, C57BL/6 wild-type mice; conditions: 5 mg/kg biw intranasal
Method: In another pilot study, Tegavivint at 5 mg/kg was administered biw (twice a week) via intranasal delivery to C57BL/6 wild-type mice. Bleomycin was administered to the mice intratracheally on day 0 to induce pulmonary fibrosis, and Tegavivint or the vehicle (5% dextrose in water) was administered on days 6, 10, 14, 18 and 21. The purpose of this experiment was to evaluate the effect of topically-administered Tegavivint on bleomycin-induced pulmonary fibrosis in vivo.

[6] = Group 3, inhaled tegavivint after bleomycin injury
[7] = Group 3: IT bleomycin Day 0, 5 ml of 25 mg/ml tegavivint aerosol BID Day 5-21, Day 21, individual animals
[8] = Topical Tegavivint alone (no bleomycin)

pulmonary compliance [5, 8]: caused an increase in compliance | soluble collagen content [5, 8]: showed a slight increase in collagen
Substance: Tegavivint
proliferation/viability ([1]; 25 pM): viable and able to proliferate to significantly greater cell numbers | proliferation/viability ([1]; 50 pM): unable to proliferate | therapeutic window concentration (proliferation of fibrosis-derived but not syngeneic palmar fascia derived cells inhibited) ([1]; DD versus PF cells, preliminary analyses): approximately 50 pM | cytotoxic concentrations ([1]; fibrosis-derived fibroblasts, both proliferation/viability assays and visual inspection): > 100 pM | effects on cell proliferation/viability ([1]; ≤25 pM): did not identify any consistent effects | apoptosis and growth inhibition [2]: undergo apoptosis and growth inhibition | effects on contractility (DD180 cells): did not identify any consistent effects | body weight loss caused by bleomycin induced lung injury ([3]; Group 3, inhaled tegavivint): reversed the body weight loss | lung compliance [3, 6]: reversed the compliance values to near those of the sham-treated controls | total lung collagen content (Hydroxyproline assay) [3, 6]: reversed this change and the collagen levels are closed to sham-treated controls | Compliance (ml/cm H20) [3, 7]: 0.05515 ml/cm H20 and 0.05604 ml/cm H20 and 0.06762 ml/cm H20 and 0.0543 ml/cm H20 and 0.0561 ml/cm H20 | Hydroxyproline (μg/half lung) [3, 7]: 70.016 μg/half lung and 39.44 μg/half lung and 45.68 μg/half lung and 58.784 μg/half lung and 64.296 μg/half lung | Change in body weight (%) ([3]; Group 3: IT bleomycin Day 0, 5 ml of 25 mg/ml tegavivint aerosol BID Day 5-21, individual animals): −2.83% and 5.2% and 7.3% (2×) and 7.9% | proliferation/viability ([4]; 25 pM): proliferated to significantly greater cell numbers | proliferation/viability ([4]; 50 pM): proliferated to significantly greater cell numbers | cytotoxic concentrations ([4]; syngeneic fibroblasts from visibly unaffected palmar fascia, both proliferation/viability assays and visual inspection): > 100 pM | pulmonary compliance ([5]; Tegavivint after bleomycin, compared to bleomycin only): showed a trend towards increased compliance | soluble collagen content ([5]; Tegavivint after bleomycin, compared with bleomycin-only): significantly decreased the collagen level
